According to PMC10341893, “Motifs in Natural Products as Useful Scaffolds to Obtain Novel Benzo[d]imidazole-Based Cannabinoid Type 2 (CB2) Receptor Agonists” (International Journal of Molecular Sciences, 2023):
Where two headings read alike, the source gives them in different places.

Legend:
hCB2 receptor [1] = biological target: T1, hCB2 receptor (Homo sapiens, UniProt P34972); test: Single-dose radioligand displacement assay ([3H]WIN55212-2); format: binding; set-up: host or cells: CHO cells; details: membranes from recombinant CHO cells expressing human CB2, duplicate; for inhibition at 10 µM: read-out: Inhibition (%) of [3H]WIN55212-2 specific binding, 10 µM single dose; for Inhibition (%) of [3H]WIN55212-2 specific binding: 10 µM single dose
T1 sequence (P34972 whole entry): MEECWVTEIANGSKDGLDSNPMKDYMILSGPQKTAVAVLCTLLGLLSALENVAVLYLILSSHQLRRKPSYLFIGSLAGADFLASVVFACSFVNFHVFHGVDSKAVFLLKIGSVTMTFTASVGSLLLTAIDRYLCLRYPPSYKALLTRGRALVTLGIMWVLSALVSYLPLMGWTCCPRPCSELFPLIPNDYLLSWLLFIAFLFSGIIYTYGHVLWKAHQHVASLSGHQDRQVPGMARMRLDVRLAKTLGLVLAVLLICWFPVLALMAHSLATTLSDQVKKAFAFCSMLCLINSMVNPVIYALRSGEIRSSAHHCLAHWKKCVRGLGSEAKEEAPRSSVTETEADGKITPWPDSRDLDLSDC
Procedure: To assess ligand binding to CB2 receptors, radioligand displacement assay at a single dose (10 μM) was performed in membranes obtained from recombinant CHO cells expressing human CB2 receptors (Eurofins Cerep SA, France). Out of 26 compounds, more than 50% of the molecules presented >50% displacement, while 20% of the compounds (5, 6, 16, 19, 22) presented >80% displacement of radioligand binding at a 10 μM dose. Compounds 5, 6, 16, 19, and 22 were further tested for CB2 receptor activation (agonist activity, see below) and CB2/CB1 selectivity.
All membrane preparations for these studies were generated at Cerep Inc. according to standard protocols. Duplicate determinations were performed for each test compound. Compounds were dissolved in DMSO to generate a stock solution. Radioligand binding methods were adapted from Munro et al..

hCB2 receptor [2] = biological target: T1, hCB2 receptor; test: cAMP accumulation assay (forskolin-stimulated, CHO cells expressing hCB2); format: cell-based; details: for agonist activity at CB2 (cAMP accumulation): recombinant cells expressing CB2 receptors
Procedure: Compounds were further characterized through in vitro functional assays by measuring the variation in forskolin-induced cAMP accumulation (Eurofins Cerep services). The tested compounds diminished the accumulation of cyclic AMP, indicating activity as agonists (Figure 3).
In vitro pharmacology assay for human CB2 agonist effect in CHO cells was performed by Eurofins Cerep (Celle-Lévescault, France). Five compounds were tested at several concentrations for EC50 determination. […] CHO cells stably expressing hCB2 receptor were used to determine agonist effect of compounds, based on the measurement of cAMP level. Assay protocol is adapted from Felder et al..

human recombinant CB1R = biological target: T2, human recombinant CB1R (Homo sapiens, UniProt P21554); test: CB1 receptor binding assay ([3H]-CP-55,940 displacement, HEK cell membranes)
T2 construct: expressed in transfected cells; host or cells: HEK cells
T2 sequence (P21554 whole entry): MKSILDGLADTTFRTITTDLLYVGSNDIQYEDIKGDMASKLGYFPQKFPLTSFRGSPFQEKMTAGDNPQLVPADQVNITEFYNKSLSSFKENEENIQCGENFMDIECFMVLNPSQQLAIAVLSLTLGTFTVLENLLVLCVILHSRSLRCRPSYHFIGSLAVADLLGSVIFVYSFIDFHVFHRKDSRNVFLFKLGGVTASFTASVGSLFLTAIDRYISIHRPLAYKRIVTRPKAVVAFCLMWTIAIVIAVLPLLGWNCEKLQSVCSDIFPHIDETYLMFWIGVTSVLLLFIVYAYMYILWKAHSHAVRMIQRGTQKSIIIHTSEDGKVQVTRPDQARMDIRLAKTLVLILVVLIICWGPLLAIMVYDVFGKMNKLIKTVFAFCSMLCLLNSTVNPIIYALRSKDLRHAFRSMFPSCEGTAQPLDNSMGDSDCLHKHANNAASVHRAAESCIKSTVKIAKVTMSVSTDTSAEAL
Procedure: (§1) To assess the compound selectivity between CB1 and CB2 receptors, binding constants were determined through a radioligand displacement assay by testing concentration–response curves for compounds 5, 6, 16, 19, and 22. As shown in Figure 4 and summarized in Table 4, three of the tested compounds (5, 19, and 22) presented moderate binding affinity in a low micromolar range to both CB1 and CB2 receptors.
(§2) CB1 and CB2 receptor binding assays were performed exactly as previously described. […] Displacement curves were performed by incubating [^3H]-CP-55 940 (90 min, 30 °C) with increasing concentrations of compounds (10 nM−10 μM). Ki values were calculated by applying the Cheng−Prusoff equation to the IC50 values (obtained by GraphPad, Prism Software 9.5) for the displacement of the bound radioligand by compounds.

hCB2 receptor [3] = biological target: T1, hCB2 receptor; test: CB2 receptor binding assay ([3H]-CP-55,940 displacement, HEK cell membranes); set-up: expressed in transfected cells; host or cells: HEK cells; details: for Ki (CB1)/Ki (CB2): selectivity ratio CB2 over CB1
Procedure: as §1, §2

[4] = [3H]-CP-55,940 displacement, means ± SD of 3 independent experiments in duplicate, read-out: Ki CB1
[5] = [3H]-CP-55,940 displacement, means ± SD of 3 independent experiments in duplicate, read-out: Ki CB2

| SMILES | inhibition at 10 µM (hCB2 receptor [1]) [%] | Inhibition (%) of [3H]WIN55212-2 specific binding (hCB2 receptor [1]) [%] | other results |
| --- | --- | --- | --- |
| CC1CCC(C(C)C)C(Sc2nc3ccccc3n2Cc2cccc3ccccc23)C1 (stereo not shown) [Compound 1, 2-((2-isopropyl-5-methylcyclohexyl)thio)-1-(naphthalen-1-ylmethyl)-1H-benzo[d]imidazole] | 2 |  |  |
| CC1CCC(C(C)C)C(Sc2nc3ccccc3n2Cc2ccccc2)C1 (stereo not shown) [Compound 2, 1-benzyl-2-((2-isopropyl-5-methylcyclohexyl)thio)-1H-benzo[d]imidazole] | 72 |  |  |
| CCn1c(SC2CC(C)CCC2C(C)C)nc2ccccc21 (stereo not shown) [Compound 3, 1-ethyl-2-((2-isopropyl-5-methylcyclohexyl)thio)-1H-benzo[d]imidazole] | 69 |  |  |
| CC1CCC(C(C)C)C(Oc2nc3ccccc3n2Cc2cccc3ccccc23)C1 (stereo not shown) [Compound 4, 2-((2-isopropyl-5-methylcyclohexyl)oxy)-1-(naphthalen-1-ylmethyl)-1H-benzo[d]imidazole] | 37 |  |  |
| CC1CCC(C(C)C)C(Oc2nc3ccccc3n2Cc2ccccc2)C1 (stereo not shown) [Compound 5, 1-benzyl-2-((2-isopropyl-5-methylcyclohexyl)oxy)-1H-benzo[d]imidazole] | > 80 | 90 | EC50 (hCB2 receptor [2]): 0.014 µM; agonist activity at CB2 (cAMP accumulation) (hCB2 receptor [2]): agonist activity was confirmed; Ki (human recombinant CB1R): 0.92 ± 1.15 µM; Ki (hCB2 receptor [3]): 0.4 ± 0.08 µM; Ki (CB1)/Ki (CB2) (hCB2 receptor [3]): 2.3 |
| CC(C)=CCC/C(C)=C/CSc1nc2ccccc2n1Cc1cccc2ccccc12 [Compound 7, (E)-2-((3,7-dimethylocta-2,6-dien-1-yl)thio)-1-(naphthalen-1-ylmethyl)-1H-benzo[d]imidazole] | 42 |  |  |
| CC(C)=CCC/C(C)=C/CSc1nc2ccccc2n1Cc1ccccc1 [Compound 8, (E)-1-benzyl-2-((3,7-dimethylocta-2,6-dien-1-yl)thio)-1H-benzo[d]imidazole] |  | 71 |  |
| CCn1c(SC/C=C(\C)CCC=C(C)C)nc2ccccc21 [Compound 9, (E)-2-((3,7-dimethylocta-2,6-dien-1-yl)thio)-1-ethyl-1H-benzo[d]imidazole] | 54 |  |  |
| CC(C)=CCC/C(C)=C/COc1nc2ccccc2n1Cc1cccc2ccccc12 [Compound 10, (E)-2-((3,7-dimethylocta-2,6-dien-1-yl)oxy)-1-(naphthalen-1-ylmethyl)-1H-benzo[d]imidazole] |  | 40 |  |
| CC(C)=CCC/C(C)=C/COc1nc2ccccc2n1Cc1ccccc1 [Compound 11, (E)-1-benzyl-2-((3,7-dimethylocta-2,6-dien-1-yl)oxy)-1H-benzo[d]imidazole] | 35 |  |  |
| CCn1c(OC/C=C(\C)CCC=C(C)C)nc2ccccc21 [Compound 12, (E)-2-((3,7-dimethylocta-2,6-dien-1-yl)oxy)-1-ethyl-1H-benzo[d]imidazole] |  | −3 |  |
| c1ccc2c(Cn3c(SC45CC6CC(CC(C6)C4)C5)nc4ccccc43)cccc2c1 [Compound 13, 2-(adamantan-1-ylthio)-1-(naphthalen-1-ylmethyl)-1H-benzo[d]imidazole] | 30 |  |  |
| c1ccc(Cn2c(SC34CC5CC(CC(C5)C3)C4)nc3ccccc32)cc1 [Compound 14, 2-(adamantan-1-ylthio)-1-benzyl-1H-benzo[d]imidazole] |  | 69 |  |
| CCn1c(SC23CC4CC(CC(C4)C2)C3)nc2ccccc21 [Compound 15, 2-(adamantan-1-ylthio)-1-ethyl-1H-benzo[d]imidazole] |  | 63 |  |
| c1ccc(Cn2c(OC34CC5CC(CC(C5)C3)C4)nc3ccccc32)cc1 [Compound 16, 2-(adamantan-1-yloxy)-1-benzyl-1H-benzo[d]imidazole] | > 80 | 86 | EC50 (hCB2 receptor [2]): 0.02 µM; agonist activity at CB2 (cAMP accumulation) (hCB2 receptor [2]): agonist activity was confirmed; Ki (human recombinant CB1R): > 10 µM; Ki (hCB2 receptor [3]): 0.63 ± 0.19 µM |
| CCn1c(OC23CC4CC(CC(C4)C2)C3)nc2ccccc21 [Compound 17, 2-(adamantan-1-yloxy)-1-ethyl-1H-benzo[d]imidazole] |  | 61 |  |
| COc1ccc(CSc2nc3ccccc3n2Cc2cccc3ccccc23)cc1 [Compound 18, 2-((4-methoxybenzyl)thio)-1-(naphthalen-1-ylmethyl)-1H-benzo[d]imidazole] |  | 46 |  |
| COc1ccc(CSc2nc3ccccc3n2Cc2ccccc2)cc1 [Compound 19, 1-benzyl-2-((4-methoxybenzyl)thio)-1H-benzo[d]imidazole] | > 80 | 88 | agonist activity at CB2 (cAMP accumulation) (hCB2 receptor [2]): agonist activity was confirmed; Ki (human recombinant CB1R; [4]): 1.23 ± 0.88 µM; Ki (hCB2 receptor [3]; [5]): 0.93 ± 0.29 µM; Ki (CB1)/Ki (CB2) (hCB2 receptor [3]): 1.3 |
| CCn1c(SCc2ccc(OC)cc2)nc2ccccc21 [Compound 20, 1-ethyl-2-((4-methoxybenzyl)thio)-1H-benzo[d]imidazole] | 63 |  |  |
| COc1cccc(Oc2nc3ccccc3n2Cc2cccc3ccccc23)c1 [Compound 21, 2-(3-methoxyphenoxy)-1-(naphthalen-1-ylmethyl)-1H-benzo[d]imidazole] |  | 62 |  |
| COc1cccc(Oc2nc3ccccc3n2Cc2ccccc2)c1 [Compound 22, 1-benzyl-2-(3-methoxyphenoxy)-1H-benzo[d]imidazole] | > 80 | 84 | agonist activity at CB2 (cAMP accumulation) (hCB2 receptor [2]): agonist activity was confirmed; Ki (human recombinant CB1R; [4]): 2.04 ± 1.22 µM; Ki (hCB2 receptor [3]; [5]): 0.6 ± 0.52 µM; Ki (CB1)/Ki (CB2) (hCB2 receptor [3]): 3.4 |
| CCn1c(Oc2cccc(OC)c2)nc2ccccc21 [Compound 23, 1-ethyl-2-(3-methoxyphenoxy)-1H-benzo[d]imidazole] | 54 |  |  |
| CCCCCCC(C)(C)c1cc(OC)cc(Oc2nc3ccccc3n2Cc2cccc3ccccc23)c1 [Compound 24, 2-(3-methoxy-5-(2-methyloctan-2-yl)phenoxy)-1-(naphthalen-1-ylmethyl)-1H-benzo[d]imidazole] | 32 |  |  |
| CCCCCCC(C)(C)c1cc(OC)cc(Oc2nc3ccccc3n2Cc2ccccc2)c1 [Compound 25, 1-benzyl-2-(3-methoxy-5-(2-methyloctan-2-yl)phenoxy)-1H-benzo[d]imidazole] | 33 |  |  |
| CCCCCCC(C)(C)c1cc(OC)cc(Oc2nc3ccccc3n2CC)c1 [Compound 26, 1-ethyl-2-(3-methoxy-5-(2-methyloctan-2-yl)phenoxy)-1H-benzo[d]imidazole] | 49 |  |  |
